Source: publication PMC6471485, “Selective Inhibitors of a Human Prolyl Hydroxylase (OGFOD1) Involved in Ribosomal Decoding” (Chemistry (Weinheim an Der Bergstrasse, Germany), 2019)

Tests used:
NO66 = target: T1, NO66 (Homo sapiens, UniProt Q9H6W3); experiment: NO66 IC50 determination, RapidFire MS; type: biochemical
T1 construct: 116-641 were cloned into pFB-LIC-Bse; His (N); made in house; host or cells: Sf9 insect cells
T1 sequence (Q9H6W3 116-641 limits assumed): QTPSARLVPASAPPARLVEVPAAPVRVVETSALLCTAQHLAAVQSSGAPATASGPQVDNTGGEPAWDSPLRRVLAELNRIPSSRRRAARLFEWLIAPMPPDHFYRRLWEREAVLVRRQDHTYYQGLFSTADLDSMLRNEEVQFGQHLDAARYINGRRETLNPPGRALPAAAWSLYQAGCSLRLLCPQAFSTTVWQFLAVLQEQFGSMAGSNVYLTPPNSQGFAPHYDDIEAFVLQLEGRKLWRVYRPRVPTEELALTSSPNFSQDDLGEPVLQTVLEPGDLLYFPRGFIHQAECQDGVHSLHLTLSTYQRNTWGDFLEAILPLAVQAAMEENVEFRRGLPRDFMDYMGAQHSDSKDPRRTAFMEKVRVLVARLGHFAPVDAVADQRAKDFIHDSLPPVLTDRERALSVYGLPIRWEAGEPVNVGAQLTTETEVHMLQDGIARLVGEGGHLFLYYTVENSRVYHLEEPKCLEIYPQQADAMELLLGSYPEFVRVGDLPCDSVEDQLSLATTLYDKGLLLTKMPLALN
Method: (§1) reactions were quenched after 4 min. KDM4A inhibition was tested as described previously using a formaldehyde dehydrogenase (FDH) assay.[9] JARID1B and JARID1C inhibition was tested as described previously using reported AlphaScreen-based assays.[10] MINA531-464 and NO66116-641 were cloned into pFB-LIC-Bse, and the N-terminal His-tagged proteins were produced in Sf9 insect cells. The MINA53 peptide substrate Rpl27a […]
(§2) (Gly31 – Pro49 […]) and the NO66 peptide substrate Rpl8
(§3) (Asn205 – Thr224 […]) were synthesized by Peptide Protein
(§4) Research Ltd (Fareham, Hampshire, UK) to >95% purity. IC50 determinations were performed in 384-well polypropylene plates (Greiner Bio One, Cat Number 781096), and compound dispenses were performed using an ECHO 550 acoustic dispenser (Labcyte, Sunnyvale, CA). […]
(§5) RapidFire integrator software (Agilent). Percent conversion was calculated in Excel, and IC50 curves were generated using Prism v. […]
(§6) Assays consisted of enzyme (2 µM), inhibitor (200 µM), MnCl2 (50 µM), and SYPRO Orange (1:5000 dilution), all prepared in 50 mM HEPES, pH 7.5. […] An Opticon thermal cycler (MJ Research Inc) was used to control temperature and measure fluorescence. […]
(§7) CPMG Binding Experiments: Binding of the inhibitors to the proteins was monitored using Carr-Purcell-Meiboom-Gill (CPMG)-edited 1H spectra. […]

MINA53 = target: T2, MINA53 (Homo sapiens, UniProt Q8IUF8); experiment: MINA53 IC50 determination, RapidFire MS; type: biochemical
T2 construct: 1-464 and NO66116-641 were cloned into pFB-LIC-Bse; His (N); made in house; host or cells: Sf9 insect cells
Method: as §1, §2, §3, §4, §5, §6, §7

T2 sequence (Q8IUF8 1-464 limits assumed): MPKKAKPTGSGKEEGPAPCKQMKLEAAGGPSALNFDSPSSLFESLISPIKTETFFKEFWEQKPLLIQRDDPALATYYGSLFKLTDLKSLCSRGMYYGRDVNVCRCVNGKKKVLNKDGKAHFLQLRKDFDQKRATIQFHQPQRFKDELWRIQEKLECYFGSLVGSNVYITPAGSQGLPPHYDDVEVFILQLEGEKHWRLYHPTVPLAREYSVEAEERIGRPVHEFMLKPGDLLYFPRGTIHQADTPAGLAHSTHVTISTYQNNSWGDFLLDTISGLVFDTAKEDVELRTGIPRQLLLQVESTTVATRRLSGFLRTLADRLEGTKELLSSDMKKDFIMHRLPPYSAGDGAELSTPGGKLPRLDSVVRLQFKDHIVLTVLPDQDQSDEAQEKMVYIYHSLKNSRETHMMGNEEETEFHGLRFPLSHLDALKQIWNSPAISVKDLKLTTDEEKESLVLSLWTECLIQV

SMILES | IC50 (NO66) [µM] | IC50 (MINA53) [µM]
Cn1c(O)c(C(=O)CCc2ccccc2)c(=O)n(C)c1=O [compound 26] | > 100 | > 100
Cn1c(O)c(C(=O)CCc2cccs2)c(=O)n(C)c1=O [compound 42] | > 100 | > 100
